PMC5218480 (PLoS ONE, 2017)

System: MV-4-11 cells
Assay: Gene expression microarray analysis (Affymetrix PrimeView) and GSEA
Format: cell-based, human
Design: RFU PODN (11730768_x_at) / Fold change /veh PODN (11730768_x_at) / RFU LINC00158 (11744669_a_at) / Fold change /veh LINC00158 (11744669_a_at) / RFU DUSP10 (11751237_a_at) / Fold change /veh DUSP10 (11751237_a_at) / RFU ID3 (11757404_x_at) / Fold change /veh ID3 (11757404_x_at) / RFU PLEKHG5 (11737974_s_at) / Fold change /veh PLEKHG5 (11737974_s_at) / RFU LRRC4B (11730491_at) / Fold change /veh LRRC4B (11730491_at) / RFU GIMAP4 (11747438_a_at) / Fold change /veh GIMAP4 (11747438_a_at) / RFU KRT8 (11758183_x_at) / Fold change /veh KRT8 (11758183_x_at) / RFU CNN1 (11734310_a_at) / Fold change /veh CNN1 (11734310_a_at) / RFU VPS37D (11726825_at) / Fold change /veh VPS37D (11726825_at) / RFU C10orf10 (11716522_x_at) / Fold change /veh C10orf10 (11716522_x_at) / RFU KIR2DL2 /// KIR2DL4 /// KIR2DL5A /// KIR2DL5B /// KIR2DS1 /// KIR2DS2 /// KIR2DS3 /// KIR2DS4 /// KIR3DL3 /// KIR3DL3 /// KIR3DS1 (11738374_at) / Fold change /veh KIR2DL2 /// KIR2DL4 /// KIR2DL5A /// KIR2DL5B /// KIR2DS1 /// KIR2DS2 /// KIR2DS3 /// KIR2DS4 /// KIR3DL3 /// KIR3DL3 /// KIR3DS1 (11738374_at) / RFU C1QL1 (11718748_at) / Fold change /veh C1QL1 (11718748_at) / RFU TMPRSS4 (11747572_a_at) / Fold change /veh TMPRSS4 (11747572_a_at) / RFU HAMP (11756126_x_at) / Fold change /veh HAMP (11756126_x_at) / RFU RNFT2 (11725882_a_at) / Fold change /veh RNFT2 (11725882_a_at) / RFU NR4A2 (11747474_a_at) / Fold change /veh NR4A2 (11747474_a_at) / RFU ABCC12 (11746883_a_at) / Fold change /veh ABCC12 (11746883_a_at) / RFU TMEM136 (11760407_x_at) / Fold change /veh TMEM136 (11760407_x_at) / RFU CLDN22 /// WWC2 (11732394_at) / Fold change /veh CLDN22 /// WWC2 (11732394_at) / RFU HLA-DPB1 (11760878_x_at) / Fold change /veh HLA-DPB1 (11760878_x_at) / RFU SPINT1 (11716480_a_at) / Fold change /veh SPINT1 (11716480_a_at) / RFU GAP43 (11754022_s_at) / Fold change /veh GAP43 (11754022_s_at) / RFU A4GNT (11735810_at) / Fold change /veh A4GNT (11735810_at) / RFU PRB3 (11715151_x_at) / Fold change /veh PRB3 (11715151_x_at) / RFU TUBB4B (11761932_at) / Fold change /veh TUBB4B (11761932_at) / RFU CAPN14 (11732068_a_at) / Fold change /veh CAPN14 (11732068_a_at) / RFU TMCC2 (11721928_a_at) / Fold change /veh TMCC2 (11721928_a_at) / RFU IRGQ (11745062_a_at) / Fold change /veh IRGQ (11745062_a_at) / RFU FAM174B (11720279_a_at) / Fold change /veh FAM174B (11720279_a_at) / RFU TMPRSS4 (11748680_a_at) / Fold change /veh TMPRSS4 (11748680_a_at) / RFU FAM212B (11763350_a_at) / Fold change /veh FAM212B (11763350_a_at) / RFU PLEKHG5 (11743358_a_at) / Fold change /veh PLEKHG5 (11743358_a_at) / RFU ZSCAN30 (11745921_a_at) / Fold change /veh ZSCAN30 (11745921_a_at) / RFU CMKLR1 (11741424_a_at) / Fold change /veh CMKLR1 (11741424_a_at) / RFU LOC101060620 /// MAPK8IP1 (11723275_at) / Fold change /veh LOC101060620 /// MAPK8IP1 (11723275_at) / RFU SPTSSB (11747773_x_at) / Fold change /veh SPTSSB (11747773_x_at) / RFU PRSS12 (11739890_at) / Fold change /veh PRSS12 (11739890_at) / RFU BIN1 (11741810_x_at) / Fold change /veh BIN1 (11741810_x_at) / RFU WNT11 (11732464_a_at) / Fold change /veh WNT11 (11732464_a_at) / RFU C10orf10 (11716521_a_at) / Fold change /veh C10orf10 (11716521_a_at) / RFU C5orf56 (11738089_at) / Fold change /veh C5orf56 (11738089_at) / RFU CYB561 (11721691_x_at) / Fold change /veh CYB561 (11721691_x_at) / RFU ANKRD19P (11752326_a_at) / Fold change /veh ANKRD19P (11752326_a_at) / RFU OR2T12 /// OR2T33 /// OR2T8 (11738714_s_at) / Fold change /veh OR2T12 /// OR2T33 /// OR2T8 (11738714_s_at) / RFU VCAN (11748164_a_at) / Fold change /veh VCAN (11748164_a_at) / RFU JSRP1 (11732532_at) / Fold change /veh JSRP1 (11732532_at) / RFU KRTAP10-11 (11738290_x_at) / Fold change /veh KRTAP10-11 (11738290_x_at) / RFU MYO3A (11730013_a_at) / Fold change /veh MYO3A (11730013_a_at) / RFU EBF3 (11725865_a_at) / Fold change /veh EBF3 (11725865_a_at) / RFU CAMK2N1 (11719241_x_at) / Fold change /veh CAMK2N1 (11719241_x_at) / RFU C5orf56 (11738088_a_at) / Fold change /veh C5orf56 (11738088_a_at) / RFU OLFML3 (11715873_a_at) / Fold change /veh OLFML3 (11715873_a_at) / RFU LOC100653217 /// NTM (11731650_a_at) / Fold change /veh LOC100653217 /// NTM (11731650_a_at) / RFU MAPK11 (11762145_a_at) / Fold change /veh MAPK11 (11762145_a_at) / RFU FIZ1 (11724087_x_at) / Fold change /veh FIZ1 (11724087_x_at) / RFU OASL (11726364_x_at) / Fold change /veh OASL (11726364_x_at) / RFU SOX15 (11748057_x_at) / Fold change /veh SOX15 (11748057_x_at) / RFU CD79A (11719716_a_at) / Fold change /veh CD79A (11719716_a_at) / RFU HIST1H1D (11736915_at) / Fold change /veh HIST1H1D (11736915_at) / RFU CASKIN2 (11723855_a_at) / Fold change /veh CASKIN2 (11723855_a_at) / RFU LOC730098 (11760151_x_at) / Fold change /veh LOC730098 (11760151_x_at) / RFU OR4N2 (11742367_at) / Fold change /veh OR4N2 (11742367_at) / RFU PRRT2 (11749266_a_at) / Fold change /veh PRRT2 (11749266_a_at) / RFU SNX32 (11753110_a_at) / Fold change /veh SNX32 (11753110_a_at) / RFU CDHR5 (11726645_a_at) / Fold change /veh CDHR5 (11726645_a_at) / RFU RCAN1 (11760418_a_at) / Fold change /veh RCAN1 (11760418_a_at) / RFU FAM167A (11723789_a_at) / Fold change /veh FAM167A (11723789_a_at) / RFU FAM26E (11764081_at) / Fold change /veh FAM26E (11764081_at) / RFU ISYNA1 (11749810_s_at) / Fold change /veh ISYNA1 (11749810_s_at) / RFU ACY1 (11761880_at) / Fold change /veh ACY1 (11761880_at) / RFU 11764098_at / Fold change /veh 11764098_at / RFU SAMD14 (11745864_x_at) / Fold change /veh SAMD14 (11745864_x_at) / RFU NPB (11741838_a_at) / Fold change /veh NPB (11741838_a_at) / RFU TMPRSS6 (11731388_a_at) / Fold change /veh TMPRSS6 (11731388_a_at) / RFU KRTAP10-2 (11738614_at) / Fold change /veh KRTAP10-2 (11738614_at) / RFU ARHGAP8 /// PRR5-ARHGAP8 (11727945_x_at) / Fold change /veh ARHGAP8 /// PRR5-ARHGAP8 (11727945_x_at) / RFU KRTAP5-7 /// NADSYN1 (11734609_at) / Fold change /veh KRTAP5-7 /// NADSYN1 (11734609_at) / RFU RASL12 (11751679_a_at) / Fold change /veh RASL12 (11751679_a_at) / RFU CDKN2B (11736163_a_at) / Fold change /veh CDKN2B (11736163_a_at) / RFU PRF1 (11729649_at) / Fold change /veh PRF1 (11729649_at) / RFU, ZNF638 /// ZNF638-IT1 / Fold change vs veh, ZNF638 /// ZNF638-IT1 / RFU, PANK3 / Fold change vs veh, PANK3 / RFU, SH3YL1 / Fold change vs veh, SH3YL1 / RFU, ZEB2 / Fold change vs veh, ZEB2 / RFU, NRIP1 / Fold change vs veh, NRIP1 / RFU, PTTG1IP / Fold change vs veh, PTTG1IP / RFU, CAPN2 / Fold change vs veh, CAPN2 / RFU, MED14 / Fold change vs veh, MED14 / RFU, SNORA58 / Fold change vs veh, SNORA58 / RFU, C1orf63 / Fold change vs veh, C1orf63 / RFU, LRRFIP1 / Fold change vs veh, LRRFIP1 / RFU, NDUFAF7 / Fold change vs veh, NDUFAF7 / RFU, SLC12A2 / Fold change vs veh, SLC12A2 / RFU, IBTK / Fold change vs veh, IBTK / RFU, ESF1 / Fold change vs veh, ESF1 / Fold change vs veh, TMEM50B / RFU, TAOK1 / Fold change vs veh, TAOK1 / RFU, ACBD3 / Fold change vs veh, ACBD3 / RFU, TMA16 / Fold change vs veh, TMA16 / RFU, RWDD3 / Fold change vs veh, RWDD3 / RFU, BCAT1 / Fold change vs veh, BCAT1 / RFU, EDEM3 / Fold change vs veh, EDEM3 / RFU, TMEM33 / Fold change vs veh, TMEM33 / RFU, WDR75 / Fold change vs veh, WDR75 / RFU, AHCTF1 / Fold change vs veh, AHCTF1 / RFU, TFRC / Fold change vs veh, TFRC / RFU, ZDHHC17 / Fold change vs veh, ZDHHC17 / RFU, NOM1 / Fold change vs veh, NOM1 / RFU, ARL8B / Fold change vs veh, ARL8B / RFU, ZBTB11 / Fold change vs veh, ZBTB11 / RFU, TAMM41 / Fold change vs veh, TAMM41 / RFU, KIAA1704 /// LOC100996395 / Fold change vs veh, KIAA1704 /// LOC100996395 / RFU, ING1 / Fold change vs veh, ING1 / RFU, TRMT61B / Fold change vs veh, TRMT61B / RFU, FUBP3 / Fold change vs veh, FUBP3 / RFU, TP53 / Fold change vs veh, TP53 / RFU, TNKS2 / Fold change vs veh, TNKS2 / RFU, ZFP14 / Fold change vs veh, ZFP14 / RFU, ACTR2 / Fold change vs veh, ACTR2 / RFU, PPP3R1 / Fold change vs veh, PPP3R1 / RFU, PIK3R1 / Fold change vs veh, PIK3R1 / RFU, HNRNPA1 / Fold change vs veh, HNRNPA1 / RFU, RNF170 / Fold change vs veh, RNF170 / RFU, ZNF28 / Fold change vs veh, ZNF28 / RFU, RNGTT / Fold change vs veh, RNGTT / RFU, OGT / Fold change vs veh, OGT / RFU, BRD1 / Fold change vs veh, BRD1 / RFU, MARS / Fold change vs veh, MARS / RFU, ZNF655 / Fold change vs veh, ZNF655 / RFU, FAHD1 / Fold change vs veh, FAHD1 / RFU, BDP1 / Fold change vs veh, BDP1 / RFU, LRRCC1 / Fold change vs veh, LRRCC1 / RFU, ARID1A / Fold change vs veh, ARID1A / RFU, ZNF146 / Fold change vs veh, ZNF146 / RFU, ZNF330 / Fold change vs veh, ZNF330 / RFU, GPN3 / Fold change vs veh, GPN3 / RFU, C9orf123 / Fold change vs veh, C9orf123 / RFU, N4BP2L2 / Fold change vs veh, N4BP2L2 / RFU, ARFIP1 / Fold change vs veh, ARFIP1 / RFU, FAM179B / Fold change vs veh, FAM179B / RFU, BCL10 / Fold change vs veh, BCL10 / RFU, UHRF1BP1L / Fold change vs veh, UHRF1BP1L / RFU, BET1 / Fold change vs veh, BET1 / RFU, CNOT2 / Fold change vs veh, CNOT2 / RFU, ZNF268 / Fold change vs veh, ZNF268 / Fold change vs veh, ZNF507 / RFU, DGCR2 / Fold change vs veh, DGCR2 / RFU, WDSUB1 / Fold change vs veh, WDSUB1 / Fold change vs veh, HSP90B1 /// MIR3652 / RFU, ADSS / Fold change vs veh, ADSS / RFU, GK / Fold change vs veh, GK / RFU, ZNF148 / Fold change vs veh, ZNF148 / RFU, TAF9 / Fold change vs veh, TAF9 / RFU, SLC1A5 / Fold change vs veh, SLC1A5 / RFU, SLMO2 / Fold change vs veh, SLMO2 / RFU, ABCC4 / Fold change vs veh, ABCC4 / RFU, LOC101060439 /// RAP1B / Fold change vs veh, LOC101060439 /// RAP1B / RFU, RFX7 / Fold change vs veh, RFX7 / RFU, GTPBP10 / Fold change vs veh, GTPBP10 / RFU, CNEP1R1 / Fold change vs veh, CNEP1R1 / RFU, BIVM-ERCC5 /// ERCC5 / Fold change vs veh, BIVM-ERCC5 /// ERCC5 / RFU, ILF3 / Fold change vs veh, ILF3 / RFU 11762660_at / Fold change /veh 11762660_at / RFU VCAN (11757783_s_at) / Fold change /veh VCAN (11757783_s_at) / RFU DDX43 (11728927_at) / Fold change /veh DDX43 (11728927_at) / RFU KRT8 (11758188_x_at) / Fold change /veh KRT8 (11758188_x_at) / RFU NKD1 (11759106_at) / Fold change /veh NKD1 (11759106_at) / RFU SRD5A1 (11742802_a_at) / Fold change /veh SRD5A1 (11742802_a_at) / RFU TPSAB1 /// TPSB2 (11721975_s_at) / Fold change /veh TPSAB1 /// TPSB2 (11721975_s_at) / RFU GSTM3 (11746129_a_at) / Fold change /veh GSTM3 (11746129_a_at) / RFU IL23R (11737362_x_at) / Fold change /veh IL23R (11737362_x_at) / RFU TMEM51 (11727254_a_at) / Fold change /veh TMEM51 (11727254_a_at) / RFU PIWIL2 (11732686_x_at) / Fold change /veh PIWIL2 (11732686_x_at) / RFU ORM1 (11744905_x_at) / Fold change /veh ORM1 (11744905_x_at) / RFU CCDC152 (11743942_at) / Fold change /veh CCDC152 (11743942_at) / RFU ECM1 (11717891_a_at) / Fold change /veh ECM1 (11717891_a_at) / RFU IL23R (11748794_a_at) / Fold change /veh IL23R (11748794_a_at) / RFU TNFAIP8L3 (11732012_x_at) / Fold change /veh TNFAIP8L3 (11732012_x_at) / RFU MBOAT4 (11741988_at) / Fold change /veh MBOAT4 (11741988_at) / RFU 11764193_at / Fold change /veh 11764193_at / RFU TMEM53 (11763286_at) / Fold change /veh TMEM53 (11763286_at) / RFU MAGEB2 (11727129_at) / Fold change /veh MAGEB2 (11727129_at) / RFU TMEM200A (11744735_a_at) / Fold change /veh TMEM200A (11744735_a_at) / RFU CCDC152 (11751479_a_at) / Fold change /veh CCDC152 (11751479_a_at) / RFU FAM211A (11726209_a_at) / Fold change /veh FAM211A (11726209_a_at) / RFU RGS16 (11746705_a_at) / Fold change /veh RGS16 (11746705_a_at) / RFU VCAN (11755009_s_at) / Fold change /veh VCAN (11755009_s_at) / RFU RHOB (11743442_s_at) / Fold change /veh RHOB (11743442_s_at) / RFU RGS16 (11720943_a_at) / Fold change /veh RGS16 (11720943_a_at) / RFU RGS16 (11720944_at) / Fold change /veh RGS16 (11720944_at) / RFU, VPS4B / Fold change vs veh, VPS4B / RFU, CREB1 / Fold change vs veh, CREB1 / RFU, DNAJC13 / Fold change vs veh, DNAJC13 / RFU, GNAQ / Fold change vs veh, GNAQ / RFU, CDK5R1 / Fold change vs veh, CDK5R1 / RFU, ZRANB3 / Fold change vs veh, ZRANB3 / RFU, CUL4A / Fold change vs veh, CUL4A / RFU, CCNY / Fold change vs veh, CCNY / RFU, UFL1 / Fold change vs veh, UFL1 / RFU, COG3 / Fold change vs veh, COG3 / RFU, DIAPH2 / Fold change vs veh, DIAPH2 / RFU, SKA2 / Fold change vs veh, SKA2 / RFU, AFF3 / Fold change vs veh, AFF3 / RFU, LMF1 / Fold change vs veh, LMF1 / RFU, IPO11 / Fold change vs veh, IPO11 / RFU, DFFB / Fold change vs veh, DFFB / RFU, FOXP1 / Fold change vs veh, FOXP1 / RFU, CARD8 / Fold change vs veh, CARD8 / RFU, STRN3 / Fold change vs veh, STRN3 / RFU, ADK / Fold change vs veh, ADK / RFU, RASSF2 / Fold change vs veh, RASSF2 / RFU, WIPF1 / Fold change vs veh, WIPF1 / RFU, LARP1B / Fold change vs veh, LARP1B / RFU, RASA1 / Fold change vs veh, RASA1 / RFU, RB1 / Fold change vs veh, RB1 / RFU, PPFIA1 / Fold change vs veh, PPFIA1 / RFU, MAT2A / Fold change vs veh, MAT2A / RFU, CCT5 / Fold change vs veh, CCT5 / RFU, WDR92 / Fold change vs veh, WDR92 / RFU, CUX1 / Fold change vs veh, CUX1 / RFU, TTC7A / Fold change vs veh, TTC7A / RFU, TMEM135 / Fold change vs veh, TMEM135 / RFU, DEPTOR / Fold change vs veh, DEPTOR / RFU, CPM / Fold change vs veh, CPM / RFU, DNAJB6 / Fold change vs veh, DNAJB6 / RFU, CACNA2D3 / Fold change vs veh, CACNA2D3 / RFU, DTX4 / Fold change vs veh, DTX4 / RFU, TFCP2 / Fold change vs veh, TFCP2 / RFU, GMCL1 /// GMCL1P1 / Fold change vs veh, GMCL1 /// GMCL1P1 / RFU, AEBP2 / Fold change vs veh, AEBP2 / RFU, SNHG1 /// SNORD22 /// SNORD25 /// SNORD26 /// SNORD27 /// SNORD28 /// SNORD29 /// SNORD31 / Fold change vs veh, SNHG1 /// SNORD22 /// SNORD25 /// SNORD26 /// SNORD27 /// SNORD28 /// SNORD29 /// SNORD31 / Fold change (Aza/veh), C12orf56 (ProbeSet 11735607_a_at) / Fold change (ACY-1035/veh), C12orf56 (ProbeSet 11735607_a_at) / Fold change (Aza/veh), FGFR1OP (ProbeSet 11751329_s_at) / Fold change (ACY-1035/veh), FGFR1OP (ProbeSet 11751329_s_at) / Fold change (Aza/veh), VPS36 (ProbeSet 11739960_a_at) / Fold change (ACY-1035/veh), VPS36 (ProbeSet 11739960_a_at) / RFU SYPL1 (11715823_x_at) / Fold change /veh SYPL1 (11715823_x_at) / RFU IGFBP7 (11715501_s_at) / Fold change /veh IGFBP7 (11715501_s_at) / RFU REEP3 (11722064_at) / Fold change /veh REEP3 (11722064_at) / RFU IGLL1 (11728026_x_at) / Fold change /veh IGLL1 (11728026_x_at): dose or concentration left out as unconfirmed
Details: ProbeSet 11758919_x_at; LIST D

SMILES: Nc1ncn([C@@H]2O[C@H](CO)[C@@H](O)[C@H]2O)c(=O)n1 [azacitidine]
- RFU, TFCP2: 66.08 RFU
